# Results published in patent US12599610B2, “Solid dosage formulations of an orexin receptor antagonist” (Merck Sharp & Dohme LLC, priority 2012, dated 2026).
# Read-outs that look alike come from different tables or passages of the source.
# Assay: clinical food-effect pharmacokinetic study in healthy human men, fasted vs high-fat breakfast
# Settings: male, in vivo, po, 40 mg; for Tmax / Cmax / half-life: single oral 40 mg; for AUC(0-inf): single oral 40 mg dose of hot melt extrusion composition; for half-life: read-out: Apparent Terminal t1/2 (converted)
# Protocol: The pharmacokinetic profile of this composition of suvorexant was also tested by administering a single dose of the formulation to healthy human men. […] In the second period of this clinical study, the 7 subjects in each treatment groups were crossed over and received the other treatment.
# The fed/fasted GMR and 90% confidence intervals for AUC0-inf were 0.98 (0.90, 1.07).
smiles,measurement,setting,value
"Cc1ccc(-n2nccn2)c(C(=O)N2CCN(c3nc4cc(Cl)ccc4o3)CC[C@H]2C)c1 [Suvorexant, 5-chloro-2-{(5R)-5-methyl-4-[5-methyl-2-(2H-1,2,3-triazol-2-yl)benzoyl]-1,4-diazepan-1-yl}-1,3-benzoxazole]",Tmax,"Tmax (Suvorexant Fed/Suvorexant Fasted), fed/fasted",1.5 h
same,AUC(0-inf),Fasted (8-hour fast),13.2 µM·h
same,AUC(0-inf),Fed (standard high-fat breakfast),13 µM·h
same,Cmax,Fasted,1000 nM
same,half-life,Fasted,10.9 h
same,Tmax,"Fasted, read-out: Tmax",2 h
same,Cmax,Fed (high-fat breakfast),1100 nM
same,half-life,Fed (high-fat breakfast),11.8 h
same,Tmax,"Fed (high-fat breakfast), read-out: Tmax",3 h
